Target: vanilloid receptor 1 (VR1/TRPV1 receptor) (Homo sapiens, UniProt Q8NER1)
Assay: FLIPR functional assay (Ca2+ influx, capsaicin) on the vanilloid receptor 1
Format: cell-based
Details: capsaicin (Cap) stimulus; for inhibition at 5 µM: compound at 5 μM, read-out: inhibition (as a percentage) Cap, (human being); for Ki: functional (f), Ki from IC50 by Cheng-Prusoff, read-out: (f) Ki (human being) [nM] Cap

SMILES | inhibition at 5 µM [%] | Ki [nM]
CC(C(=O)NCc1ccc(C(F)(F)F)nc1N1CCCC1)c1cccc(CNS(C)(=O)=O)c1 (centres unmarked) [Example 2, 2-(3-(methylsulfonamidomethyl)phenyl)-N-((2-(pyrrolidin-1-yl)-6-(trifluoromethyl)pyridin-3-yl)methyl)propanamide] | 48 | –
CS(=O)(=O)NCc1ccc(NC(=O)NCc2ccc(C(F)(F)F)nc2N2CCCC2)cc1 [Example 4, N-(4-(3-((2-(pyrrolidin-1-yl)-6-(trifluoromethyl)pyridin-3-yl)methyl)ureido)benzyl)methanesulfonamide] | – | 26
CC1CCN(c2nc(C(F)(F)F)ccc2CNC(=O)Nc2ccc(CNS(C)(=O)=O)cc2)CC1 [Example 5, N-(4-(3-((2-(4-methylpiperidin-1-yl)-6-(trifluoromethyl)pyridin-3-yl)methyl)ureido)benzyl)methanesulfonamide] | – | 4
CC1CCN(c2nc(C(F)(F)F)ccc2CNC(=O)C(C)c2ccc(CNS(C)(=O)=O)cc2)CC1 (centres unmarked) [Example 6, N-((2-(4-methylpiperidin-1-yl)-6-(trifluoromethyl)pyridin-3-yl)methyl)-2-(4-(methylsulfonamidomethyl)phenyl)propanamide] | – | 11
CCNc1nc(C(F)(F)F)ccc1CNC(=O)C(C)c1ccc(CNS(C)(=O)=O)c(F)c1 (centres unmarked) [Example 8, N-((2-(ethylamino)-6-(trifluoromethyl)pyridin-3-yl)methyl)-2-(3-fluoro-4-(methylsulfonamidomethyl)phenyl)propanamide] | 71 | –
CCCCNc1nc(C(F)(F)F)ccc1CNC(=O)C(C)c1ccc(CNS(C)(=O)=O)c(F)c1 (centres unmarked) [Example 9, N-((2-(butylamino)-6-(trifluoromethyl)pyridin-3-yl)methyl)-2-(3-fluoro-4-(methylsulfonamidomethyl)phenyl)propanamide] | – | 95
COC1CN(c2nc(C(F)(F)F)ccc2CNC(=O)C(C)c2ccc(CNS(C)(=O)=O)c(F)c2)C1 (centres unmarked) [Example 14, 2-(3-fluoro-4-(methylsulfonamidomethyl)phenyl)-N-((2-(3-methoxyazetidin-1-yl)-6-(trifluoromethyl)pyridin-3-yl)methyl)propanamide] | 46 | –
CC(C(=O)NCc1ccc(C(F)(F)F)nc1N1CCCC1)c1ccc(CNS(C)(=O)=O)c(F)c1 (centres unmarked) [Example 17, 2-(3-fluoro-4-(methylsulfonamidomethyl)phenyl)-N-((2-(pyrrolidin-1-yl)-6-(trifluoromethyl)pyridin-3-yl)methyl)propanamide] | – | 23
CC(C(=O)NCc1ccc(C(F)(F)F)nc1N1CCCCC1)c1ccc(CNS(C)(=O)=O)c(F)c1 (centres unmarked) [Example 21, 2-(3-fluoro-4-(methylsulfonamidomethyl)phenyl)-N-((2-(piperidin-1-yl)-6-(trifluoromethyl)pyridin-3-yl)methyl)propanamide] | – | 5
CC1CCN(c2nc(C(F)(F)F)ccc2CNC(=O)Nc2ccc(CNS(C)(=O)=O)c(F)c2)CC1 [Example 24, N-(2-fluoro-4-(3-((2-(4-methylpiperidin-1-yl)-6-(trifluoromethyl)pyridin-3-yl)methyl)ureido)benzyl)methanesulfonamide] | – | 5
CC1CCN(c2nc(C(F)(F)F)ccc2CNC(=O)Cc2ccc(CNS(C)(=O)=O)c(F)c2)CC1 [Example 25] | – | 4
CC1CCN(c2nc(C(C)(C)C)ccc2CNC(=O)C(C)c2ccc(CNS(C)(=O)=O)c(F)c2)CC1 (centres unmarked) [Example 28, N-((6-tert-butyl-2-(4-methylpiperidin-1-yl)pyridin-3-yl)methyl)-2-(3-fluoro-4-(methylsulfonamidomethyl)phenyl)propanamide] | – | 5
CC1CCN(c2cc(C(F)(F)F)ccc2CNC(=O)C(C)c2ccc(CNS(C)(=O)=O)c(F)c2)CC1 (centres unmarked) [Example 29, 2-(3-fluoro-4-(methylsulfonamidomethyl)phenyl)-N-(2-(4-methylpiperidin-1-yl)-4-(trifluoromethyl)benzyl)propanamide] | – | 5
CC1CCN(c2nc(C(F)(F)F)ccc2CNC(=O)C(C)c2ccc(CNS(C)(=O)=O)c(F)c2)CC1 (centres unmarked) [Example 30, 2-(3-fluoro-4-(methylsulfonamidomethyl)phenyl)-N-((2-(4-methylpiperidin-1-yl)-6-(trifluoromethyl)pyridin-3-yl)methyl)propanamide] | – | 8
CC(C(=O)NCc1ccc(C(F)(F)F)nc1N1CCC(c2ccccc2)(N(C)C)CC1)c1ccc(CNS(C)(=O)=O)c(F)c1 (centres unmarked) [Example 34, N-((2-(4-(dimethylamino)-4-phenylpiperidin-1-yl)-6-(trifluoromethyl)pyridin-3-yl)methyl)-2-(3-fluoro-4-(methylsulfonamidomethyl)phenyl)propanamide] | – | 61
CC(C(=O)NCc1ccc(C(F)(F)F)nc1N1CCOCC1)c1ccc(CNS(C)(=O)=O)c(F)c1 (centres unmarked) [Example 35, 2-(3-fluoro-4-(methylsulfonamidomethyl)phenyl)-N-((2-morpholino-6-(trifluoromethyl)pyridin-3-yl)methyl)propanamide] | 53 | –

SMILES | inhibition at 5 µM [%] | Ki [nM]
CC(C(=O)NCc1ccc(C(F)(F)F)nc1N1CCCC1)c1ccc(CNS(C)(=O)=O)c(Cl)c1 (centres unmarked) [Example 45, 2-(3-chloro-4-(methylsulfonamidomethyl)phenyl)-N-((2-(pyrrolidin-1-yl)-6-(trifluoromethyl)pyridin-3-yl)methyl)propanamide] | – | 80
CC1CCN(c2nc(C(F)(F)F)ccc2CNC(=O)C(C)c2ccc(CNS(C)(=O)=O)c(Cl)c2)CC1 (centres unmarked) [Example 46, 2-(3-chloro-4-(methylsulfonamidomethyl)phenyl)-N-((2-(4-methylpiperidin-1-yl)-6-(trifluoromethyl)pyridin-3-yl)methyl)propanamide] | – | 5
CC1CCN(c2nc(C(F)(F)F)ccc2CNC(=O)Nc2ccc(CNS(C)(=O)=O)c(O)c2)CC1 [Example 47, N-(2-hydroxy-4-(3-((2-(4-methylpiperidin-1-yl)-6-(trifluoromethyl)pyridin-3-yl)methyl)ureido)benzyl)methanesulfonamide] | – | 6
COc1cc(C(C)C(=O)NCc2ccc(C(F)(F)F)nc2N2CCCC2)ccc1CNS(C)(=O)=O (centres unmarked) [Example 48, 2-(3-methoxy-4-(methylsulfonamidomethyl)phenyl)-N-((2-(pyrrolidin-1-yl)-6-(trifluoromethyl)pyridin-3-yl)methyl)propanamide] | – | 87
COc1cc(NC(=O)NCc2ccc(C(F)(F)F)nc2N2CCC(C)CC2)ccc1CNS(C)(=O)=O [Example 49, N-(2-methoxy-4-(3-((2-(4-methylpiperidin-1-yl)-6-(trifluoromethyl)pyridin-3-yl)methyl)ureido)benzyl)methanesulfonamide] | – | 12
Cc1cc(NC(=O)NCc2ccc(C(F)(F)F)nc2N2CCCC2)ccc1CNS(C)(=O)=O [Example 52, N-(2-methyl-4-(3-((2-(pyrrolidin-1-yl)-6-(trifluoromethyl)pyridin-3-yl)methyl)ureido)benzyl)methanesulfonamide] | – | 46
Cc1cc(NC(=O)NCc2ccc(C(F)(F)F)nc2N2CCC(C)CC2)ccc1CNS(C)(=O)=O [Example 53, N-(2-methyl-4-(3-((2-(4-methylpiperidin-1-yl)-6-(trifluoromethyl)pyridin-3-yl)methyl)ureido)benzyl)methanesulfonamide] | – | 5
CCS(=O)(=O)NCc1ccc(C(C)C(=O)NCc2ccc(C(F)(F)F)nc2N2CCCC2)cc1F (centres unmarked) [Example 54, 2-(4-(ethylsulfonamidomethyl)-3-fluorophenyl)-N-((2-(pyrrolidin-1-yl)-6-(trifluoromethyl)pyridin-3-yl)methyl)propanamide] | – | 76
NS(=O)(=O)NCc1ccc(CCC(=O)NCc2ccc(C(F)(F)F)nc2N2CCCC2)cc1 [Example 56, 1-{[2-pyrrolidin-1-yl-6-(trifluoromethyl)pyridin-3-yl]methyl}-3-{4-[(sulfamoylamino)methyl]phenyl}propanamide] | – | 38
NS(=O)(=O)NCc1ccc(NC(=O)NCc2ccc(C(F)(F)F)nc2N2CCCC2)cc1 [Example 57, 1-{[2-pyrrolidin-1-yl-6-(trifluoromethyl)pyridin-3-yl]methyl}-3-{4-[(sulfamoylamino)methyl]phenyl}urea] | – | 85
CC1CCN(c2nc(C(F)(F)F)ccc2CNC(=O)C(C)c2ccc(CNS(N)(=O)=O)cc2)CC1 (centres unmarked) [Example 58, N-((2-(4-methylpiperidin-1-yl)-6-(trifluoromethyl)pyridin-3-yl)methyl)-2-(4-((sulfamoylamino)methyl)phenyl)propanamide] | – | 2
CC1CCN(c2nc(C(F)(F)F)ccc2CNC(=O)Nc2ccc(CNS(N)(=O)=O)cc2)CC1 [Example 59, 1-{[2-(4-methylpiperidin-1-yl)-6-(trifluoromethyl)pyridin-3-yl]methyl}-3-{4-[(sulfamoylamino)methyl]phenyl}urea] | – | 1
NS(=O)(=O)NCc1ccc(NC(=O)NCc2ccc(C(F)(F)F)nc2N2CCCC2)cc1F [Example 60, 1-{3-fluoro-4-[(sulfamoylamino)methyl]phenyl}-3-{[2-pyrrolidin-1-yl-6-(trifluoromethyl)pyridin-3-yl]methyl}urea] | – | 20
CC1CCN(c2nc(C(F)(F)F)ccc2CNC(=O)Nc2ccc(CNS(N)(=O)=O)c(F)c2)CC1 [Example 61, 1-{3-fluoro-4-[(sulfamoylamino)methyl]phenyl}-3-{[2-(4-methylpiperidin-1-yl)/-6-(trifluoromethyl)pyridin-3-yl]methyl}urea] | – | 1
CC1CCN(c2nc(C(F)(F)F)ccc2CNC(=O)C(C)c2ccc(CN(C)S(C)(=O)=O)c(F)c2)CC1 (centres unmarked) [Example 63, 2-(3-fluoro-4-((N-methylmethylsulfonamido)methyl)phenyl)-N-((2-(4-methylpiperidin-1-yl)-6-(trifluoromethyl)pyridin-3-yl)methyl)propanamide] | – | 55
CC1CCN(c2nc(C(F)(F)F)ccc2CNC(=O)C(C)c2ccc(CNS(N)(=O)=O)c(F)c2)CC1 (centres unmarked) [Example 64, 2-(3-fluoro-4-((sulfamoylamino)methyl)phenyl)-N-((2-(4-methylpiperidin-1-yl)-6-(trifluoromethyl)pyridin-3-yl)methyl)propanamide] | – | 4

Reference: patent US8765733B2, “Amine substituted methanesulfonamide derivatives as vanilloid receptor ligands” (Gruenenthal GmbH, priority 2011, dated 2014)
